Measurements taken from patent US6906078B2, “Method of using (H+/K+) ATPase inhibitors as antiviral agents” (Pharmacia Corporation, priority 1994, dated 2005).
Like-named read-outs stand apart in the source and are kept apart here.

How the values were obtained:
(H+/K+)-ATPase = target: T1, (H+/K+)-ATPase (Canis lupus familiaris, UniProt P50996); assay: Inhibition of (H+/K+)-ATPase from canine gastric mucosa (inorganic phosphate release); assay type: biochemical; conditions: canine gastric mucosa microsomes, pH 6.0, 30 min preincubation at 37° C.; read-out: (H+/K+)-ATPase IC50
T1 construct: The microsomes retained at the 15%-30% sucrose interface, after centrifugation at 250,000×g for sixty minutes, were used as the source of (H^+/K^+)-ATPase; from tissue; host or cells: gastric glandular mucosa of mongrel dogs (microsomal fraction, lyophilized)
Outline: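 Lyophilised gastric microsomes (sucrose-gradient 15%/30% interface fraction from dog mucosa, ~25 mcg protein) preincubated with compound 30 min at 37° C in 20 mM MES-Tris pH 6.0, 5 mM MgCl2, 25 mM sucrose, then 30 min more after 4 mM Tris-ATP. Released phosphate read by molybdate/ascorbate at 870 nm; activity = K+-stimulated (20 mM KCl) minus basal.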

gastric acid secretion [1] = assay: Inhibition of gastric acid secretion in gastric fistula beagle dogs (histamine-stimulated); assay type: in vivo; conditions: Canis lupus familiaris, 4 h, histamine-stimulated, four-hour period, read-out: Gastric-Fistula Beagle % Inhibition (3 mg/kg dose)
Excerpt: Adult female beagle dogs weighing 6 to 11 kilograms obtained from Laboratory Research Enterprises (Kalamazoo, Mich.) or from Hazelton Research Animals (Cumberland, Va.) were surgically implanted with a simple Thomas-type gastric cannula. After recovery from surgery, the dogs were trained to stand quietly, fully conscious, in Pavlov-type dog restraining slings and were acclimated to intravenous infusion of histamine dihydrochloride. During the course of these studies, no dog was used more than once a week. All dogs were deprived of food, but not water, for 18 hours prior to each assay. Each dog was initially infused with 0.15 M sodium chloride solution at a constant rate of […]. The volume of gastric secretions, collected in plastic bottles affixed to the cannula, were measured to the nearest 0.1 ml at 30 minute intervals. One of the following protocols was followed, depending on the route chosen for administration of test compound.
Intravenous dosing: Following a 30-minute basal secretion period, test compounds were administered intravenously (i.v.). At the end of an additional 30 minute period, the saline infusion was replaced with histamine dihydrochloride in saline administered at a rate 15 mcg per kilogram of body weight per hour. Histamine stimulation was maintained for a maximum of four hours during which time gastric secretions were collected every 30 minutes. The pH and titratable acidity were determined for samples from each collection period.
Intragastric dosing: Following a 30-minute basal secretion period, he collection bottles were removed, dosing plugs here inserted, and test compounds were administered intragastrically (i.g.) At the end of a 30-minute drug absorption period, the stomachs were emptied, the collection bottles were reattached, and collections were resumed at 30-minute intervals. Simultaneously, the saline infusion was replaced with a continuous intravenous infusion of histamine dihydrochloride in saline administered for four hours at a rate 15 mcg per kilogram of body weight per hour.
Intraduodenal dosing: Dogs were also equipped with duodenal cannulas for intraduodenal (i.d.) administration of test compounds. Dosing was otherwise performed as described for intragastric dosing.
Data from each protocol were analyzed for three gastric sample variables: volume of gastric juice, acid concentration, and total acid output. Percent inhibition for each four-hour experimental period was determined for each parameter by comparison with 3 to 4 controls in which […]. Estimates of ED50's were determined from dose response curves.

gastric acid secretion [2] = assay: Inhibition of gastric acid secretion in meal-stimulated Pavlov pouch dog; assay type: in vivo, beagle dogs; conditions: 3 mg/kg, four-hour period
Method: Adult female beagle dogs weighing 6 to 10 kilograms were obtained from Laboratory Research Enterprises (Kalamazoo, Mich.) or from Hazelton Research Animals (Cumberland, Va.). Surgical implantation of a Thomas-type gastric cannula into an innervated Pavlov pouch of each dog was performed by the method reported by L. Burrows et al., J. Surgical Res., 4, 147 (1964). After recovery from surgery, the dogs were trained to stand quietly, fully conscious, in Pavlov-type dog restraining slings. All dogs were deprived of food, but not water, for 24 hours prior to each assay. Basal acid secretion was measured by collecting from the cannulas for 30 minutes before dosing with a test compound. Solutions of the test compounds in iso-osmotic phosphate buffer (pH 7.4) were given either intravenously or directly into the Pavlov pouch. After 30 minutes the pouch was drained. The dogs were then fed 320 grams of dog food and gastric acid secretions were collected each half hour for four hours. Controls were determined in the same way except that only food (i.e., no test compound) was administered.
Data were analyzed for three different variables: volume of gastric juice, acid concentration, and total acid output. Percent inhibition for the four-hour experimental period was determined for each parameter by comparison with 3 to 4 controls. Estimates of ED50 were determined from dose response curves.

T1 sequence (P50996 whole entry): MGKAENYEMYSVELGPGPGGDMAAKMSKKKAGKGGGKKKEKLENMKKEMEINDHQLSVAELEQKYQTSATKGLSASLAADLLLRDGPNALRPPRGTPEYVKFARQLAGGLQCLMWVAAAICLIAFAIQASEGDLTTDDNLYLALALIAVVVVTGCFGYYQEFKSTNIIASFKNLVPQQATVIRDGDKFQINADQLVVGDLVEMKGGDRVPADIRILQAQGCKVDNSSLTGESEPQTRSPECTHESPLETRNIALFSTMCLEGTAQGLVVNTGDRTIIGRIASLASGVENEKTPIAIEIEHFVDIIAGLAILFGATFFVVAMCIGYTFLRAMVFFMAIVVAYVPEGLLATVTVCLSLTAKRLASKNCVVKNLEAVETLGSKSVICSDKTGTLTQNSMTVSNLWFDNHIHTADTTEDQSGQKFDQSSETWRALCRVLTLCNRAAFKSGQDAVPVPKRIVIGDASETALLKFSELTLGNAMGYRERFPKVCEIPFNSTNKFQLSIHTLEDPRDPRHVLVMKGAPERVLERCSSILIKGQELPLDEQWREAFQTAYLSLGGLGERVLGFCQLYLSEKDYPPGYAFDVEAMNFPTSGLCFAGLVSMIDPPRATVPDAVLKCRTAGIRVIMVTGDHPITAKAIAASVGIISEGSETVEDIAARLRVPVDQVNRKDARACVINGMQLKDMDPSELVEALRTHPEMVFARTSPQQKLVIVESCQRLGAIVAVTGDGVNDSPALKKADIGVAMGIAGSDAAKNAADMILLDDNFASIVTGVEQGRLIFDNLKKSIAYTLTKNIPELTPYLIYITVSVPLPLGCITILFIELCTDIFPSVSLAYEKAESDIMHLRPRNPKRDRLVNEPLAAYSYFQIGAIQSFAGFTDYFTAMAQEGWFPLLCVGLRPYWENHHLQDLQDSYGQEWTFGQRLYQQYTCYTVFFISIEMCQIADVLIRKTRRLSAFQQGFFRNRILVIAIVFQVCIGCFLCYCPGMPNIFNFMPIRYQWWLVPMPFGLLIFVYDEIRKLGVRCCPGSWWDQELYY
T1 sequence (P33704 whole entry partner): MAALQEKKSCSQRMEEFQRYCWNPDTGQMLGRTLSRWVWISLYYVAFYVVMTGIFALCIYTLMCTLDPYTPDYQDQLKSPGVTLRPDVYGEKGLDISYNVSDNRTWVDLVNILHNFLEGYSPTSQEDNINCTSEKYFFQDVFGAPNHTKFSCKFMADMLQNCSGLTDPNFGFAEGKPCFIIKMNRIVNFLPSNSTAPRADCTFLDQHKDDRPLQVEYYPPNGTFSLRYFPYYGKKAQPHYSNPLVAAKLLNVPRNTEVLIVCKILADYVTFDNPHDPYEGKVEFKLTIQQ

| melting point | IC50 ((H+/K+)-ATPase) | SMILES | inhibition in vivo at 3 mg/kg (gastric acid secretion [1]; iv, 3 mg/kg i.v.) | Pavlov-Pouch Dog % Inhibition (dose (mg/kg)) (gastric acid secretion [2]) | inhibition in vivo at 3 mg/kg (gastric acid secretion [1]; intraduodenal, 3 mg/kg i.d.) | inhibition in vivo at 3 mg/kg (gastric acid secretion [1]; po, 3 mg/kg i.g.) |
| --- | --- | --- | --- | --- | --- | --- |
| 107 to 109 °C | 700 nM | CN(C)c1ccccc1C[S+]([O-])c1nc2ccccc2[nH]1 (stereo not shown) [Example 4, 2-[(1H-Benzimidazol-2-ylsulfinyl)methyl]N,N-dimethylbenzenamine] | 14% | 3 (3 mg/kg) % | – | – |
| 148 to 149 °C | 4200 nM | COc1ccc2[nH]c([S+]([O-])Cc3cc(C)ccc3N)nc2c1 (stereo not shown) [Example 34, 2-[[(5-Methoxy-1H-benzimidazol-2-yl)sulfinyl]methyl]-4-methylbenzenamine] | 91% | 79 (3 mg/kg) % | 66% | 43% |
